Target: T1, Tubulin (Sus scrofa, UniProt P02550+P02554)
T1 construct: Tubulin is purified from pig brain according to published methods; from tissue; host or cells: pig brain
Assay: Evaluation of the inhibition of tubulin polymerization (turbidimetry at 350 nm)
Type: biochemical
Conditions: concentration that inhibits the rate of polymerization by 50%; pig brain tubulin 10 μM
Experimental: Briefly, the brains are ground and centrifuged in an extraction buffer. The tubulin contained in the supernatant of the extract undergoes two successive cycles of polymerization at 37° C. and depolymerization at 4° C., before being separated from the MAPs (Microtubule Associated Proteins) by chromatography on a phosphocellulose P11 column (Whatman). […] It is stored in a buffer known as RB/2 30% glycerol, the composition of which is 50 mM MES-NaOH [2-(N-morpholino)ethanesulphonic acid], pH 6.8; 0.25 mM MgCl2; 0.5 mM EGTA; 30% glycerol (v/v), 0.2 mM GTP (guanosine-5′-triphosphate).
The polymerization of tubulin to microtubules is monitored by turbidimetry as follows: the tubulin is adjusted to a concentration of 10 μM (1 mg/ml) in RB/2 30% glycerol buffer to which 1 mM GTP and 6 mM MgCl2 are added. […] The increase in the turbidity of the solution is monitored at 350 nm.
The products are dissolved at 10 mM in DMSO and added at variable concentrations (0.5 to 10 μM) to the tubulin solution before polymerization.

T1 sequence (P02550 whole entry): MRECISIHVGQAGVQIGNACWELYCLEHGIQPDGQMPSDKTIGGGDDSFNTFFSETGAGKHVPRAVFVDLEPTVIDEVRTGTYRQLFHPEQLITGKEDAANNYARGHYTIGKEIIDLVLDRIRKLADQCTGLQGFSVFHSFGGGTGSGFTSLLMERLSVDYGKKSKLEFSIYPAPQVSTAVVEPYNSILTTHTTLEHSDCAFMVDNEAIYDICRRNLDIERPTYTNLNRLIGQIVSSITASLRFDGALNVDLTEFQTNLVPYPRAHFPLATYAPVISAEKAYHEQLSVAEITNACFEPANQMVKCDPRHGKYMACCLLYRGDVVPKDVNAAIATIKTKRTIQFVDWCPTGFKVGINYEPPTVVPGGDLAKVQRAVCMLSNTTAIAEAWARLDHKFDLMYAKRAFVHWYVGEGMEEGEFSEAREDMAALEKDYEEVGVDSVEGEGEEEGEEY
T1 sequence (P02554 whole entry): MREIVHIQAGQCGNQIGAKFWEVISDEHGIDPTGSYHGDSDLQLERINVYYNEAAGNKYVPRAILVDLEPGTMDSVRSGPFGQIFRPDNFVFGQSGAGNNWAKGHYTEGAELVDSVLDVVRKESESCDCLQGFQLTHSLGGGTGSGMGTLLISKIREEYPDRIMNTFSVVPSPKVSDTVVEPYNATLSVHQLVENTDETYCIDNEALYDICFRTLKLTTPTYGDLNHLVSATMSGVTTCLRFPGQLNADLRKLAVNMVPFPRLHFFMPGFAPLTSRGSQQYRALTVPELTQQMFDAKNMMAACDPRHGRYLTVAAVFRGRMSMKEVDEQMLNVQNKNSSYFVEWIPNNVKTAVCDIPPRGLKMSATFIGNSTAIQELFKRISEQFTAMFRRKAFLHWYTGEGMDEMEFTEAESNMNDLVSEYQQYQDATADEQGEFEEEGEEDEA

SMILES | IC50 [µM]
CCOC(=O)c1n[nH]c2c1C=CC(C)(c1ccccc1)C2 (racemic) [Example 9-1, Ethyl 6-(R,S)-6-methyl-6-phenyl-6,7-dihydro-1H-indazole-3-carboxylate] | 18
CCOC(=O)c1n[nH]c2c1C=CC(c1ccccc1)(c1ccc(OC)c(OC)c1)C2 (racemic) [Example 10-2, Ethyl 6-(R,S)-6-(3,4-dimethoxyphenyl)-6-phenyl-6,7-dihydro-1H-indazole-3-carboxylate] | 4.5
ON=C(c1n[nH]c2c1C=CC(c1ccccc1)(c1ccccc1)C2)C1CC1 (single isomer, unassigned) [Example 6-1B, cyclopropyl(6,6-diphenyl-6,7-dihydro-1H-indazol-3-yl)methanone oxime] | 3
C=CCON=C(c1n[nH]c2c1C=CC(c1ccccc1)(c1ccccc1)C2)C1CCC1 (single isomer, unassigned) [Example 6-5, Cyclobutyl(6,6-diphenyl-6,7-dihydro-1H-indazol-3-yl)methanone O-allyloxime] | 3
CCOC(=O)c1n[nH]c2c1C=CC(C)(c1ccccc1)C2 (single isomer, unassigned) [Example 9-2, ethyl 6-methyl-6-phenyl-6,7-dihydro-1H-indazole-3-carboxylate] | 15
CC(C)OC(=O)c1[nH]nc2c1C=CC(c1ccccc1)(c1ccccc1)C2 [Example 2-1, Isopropyl 6,6-diphenyl-6,7-dihydro-2H-indazole-3-carboxylate] | 3.7
COC(=O)c1[nH]nc2c1C=CC(c1ccccc1)(c1ccccc1)C2 [Example 2-2, Methyl 6,6-diphenyl-6,7-dihydro-2H-indazole-3-carboxylate] | 1.25
O=C(c1n[nH]c2c1C=CC(c1ccccc1)(c1ccccc1)C2)N1CC1 [Example 3-4, Aziridin-1-yl(6,6-diphenyl-6,7-dihydro-1H-indazol-3-yl)methanone] | 4.5
N#Cc1n[nH]c2c1C=CC(c1ccccc1)(c1ccccc1)C2 [Example 4, 6,6-Diphenyl-6,7-dihydro-1H-indazole-3-carbonitrile] | 23
O=C(c1ccccc1)c1n[nH]c2c1C=CC(c1ccccc1)(c1ccccc1)C2 [Example 5-3, (6,6-Diphenyl-6,7-dihydro-1H-indazol-3-yl)phenylmethanone] | 12.5

The remaining lines, values ahead:

IC50 [µM] | SMILES
1.5 | CCOC(=O)c1n[nH]c2c1C=CC(c1ccccc1)(c1ccc(F)cc1)C2 (single isomer, unassigned) [Example 10-3C, ethyl 6,6-(4-fluorophenyl)-6-phenyl-6,7-dihydro-1H-indazole-3-carboxylate]
0.8 | O=C(c1n[nH]c2c1C=CC(c1ccccc1)(c1ccc(F)cc1)C2)C1CC1 (single isomer, unassigned) [Example 10-4B, cyclopropyl[6-(4-fluorophenyl)-6-phenyl-6,7-dihydro-1H-indazol-3-yl]methanone]
1.5 | O=C(c1n[nH]c2c1C=CC(c1ccccc1)(c1ccc(F)cc1)C2)C1CC1 (single isomer, unassigned) [Example 10-4C, cyclopropyl[6-(4-fluorophenyl)-6-phenyl-6,7-dihydro-1H-indazol-3-yl]methanone]
6 | ON=C(c1n[nH]c2c1C=CC(c1ccccc1)(c1ccc(F)cc1)C2)C1CC1 (single isomer, unassigned) [Example 10-5B]
1.5 | O/N=C(/c1n[nH]c2c1C=CC(c1ccccc1)(c1ccc(F)cc1)C2)C1CC1 (single isomer, unassigned) [Example 10-5D, cyclopropyl[6-(4-fluorophenyl)-6-phenyl-6,7-dihydro-1H-indazol-3-yl]methanone oxime]
6 | O/N=C(\c1n[nH]c2c1C=CC(c1ccccc1)(c1ccc(F)cc1)C2)C1CC1 (single isomer, unassigned) [Example 10-5E, cyclopropyl[6-(4-fluorophenyl)-6-phenyl-6,7-dihydro-1H-indazol-3-yl]methanone oxime]
